Reference: paper PMC8589421, “Impact of Type II LRRK2 inhibitors on signaling and mitophagy” (Biochemical Journal, 2021)

System: Rab10 phosphorylation
Assay: Rab10 phosphorylation in primary human neutrophils
Format: cell-based
Settings: primary human neutrophils from two donors, 45 min
Protocol: Cell extracts were mixed with a quarter of a volume of NuPage LDS Sample buffer 4× Invitrogen and heated at 95°C for 5 min. […] At the end of electrophoresis, proteins were electrophoretically transferred onto the nitrocellulose membrane (GE Healthcare, Amersham Protran Supported 0.45 µm NC) at 100 V for 90 min on ice in the transfer buffer (48 mM Tris–HCl and 39 mM glycine supplemented with 20% methanol). Transferred membrane was blocked with 5% (w/v) skim milk powder dissolved in TBS-T [20 mM Tris–HCl, pH 7.5, 150 mM NaCl and 0.1% (v/v) Tween 20] at room temperature for 1 h. The membrane was typically cropped into three pieces, namely the ‘top piece’ (from the top of the membrane to 75 kDa), the ‘middle piece’ (between 75 and 30 kDa) and the ‘bottom piece’ (from 30 kDa to the bottom of the membrane). All primary antibodies were used at 1 μg/ml final concentration and incubated in TBS-T containing 5% (by mass) bovine serum albumin with exception of α-tubulin and GAPDH antibodies that were diluted 1 : 5000 and 1 : 2000, respectively. The top piece was incubated with the indicated rabbit anti-LRRK2 phosphorylation site antibody multiplexed with mouse anti-LRRK2 C-terminus total antibody. […] Protein bands were acquired via near infrared fluorescent detection using the Odyssey CLx imaging system and quantified using the Image Studio software. […]

Cc1ccc(C(=O)Nc2ccc(CN3CCN(C)CC3)c(C(F)(F)F)c2)cc1C#Cc1cnc2[nH]ncc2c1 [GZD-824]
concentration giving maximal inhibition of Rab10 phosphorylation: 300 nM
